How the values were obtained:
[1] = target: T1, E4, a resistance-associated esterase (Myzus persicae, UniProt P35501); settings: compared with PBO; cited from earlier work
T1 sequence (P35501 24-552): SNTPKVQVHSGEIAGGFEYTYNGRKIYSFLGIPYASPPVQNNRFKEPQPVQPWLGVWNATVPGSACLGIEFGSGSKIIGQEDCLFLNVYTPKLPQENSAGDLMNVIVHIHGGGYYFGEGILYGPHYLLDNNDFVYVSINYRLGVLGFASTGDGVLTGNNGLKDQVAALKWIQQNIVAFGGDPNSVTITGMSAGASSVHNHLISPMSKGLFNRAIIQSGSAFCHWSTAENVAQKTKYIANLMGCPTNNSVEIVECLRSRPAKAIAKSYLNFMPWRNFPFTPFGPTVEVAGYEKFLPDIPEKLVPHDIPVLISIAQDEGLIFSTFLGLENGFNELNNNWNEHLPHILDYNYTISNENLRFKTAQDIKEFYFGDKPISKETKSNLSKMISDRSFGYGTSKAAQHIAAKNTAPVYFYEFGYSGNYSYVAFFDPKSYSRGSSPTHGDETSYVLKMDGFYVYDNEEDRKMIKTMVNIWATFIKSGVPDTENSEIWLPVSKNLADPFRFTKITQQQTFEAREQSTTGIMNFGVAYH

[2] = target: T2, FE4 Myzus persicae esterases (Myzus persicae, UniProt P35502); test: Inhibition of esterase FE4, 4-nitrophenyl acetate model substrate assay; format: biochemical; settings: purified FE4, 2.5 μL of 10 mM compound in acetone, 10 min incubation, substrate 4-nitrophenyl acetate 0.8 mM, read at 405 nm
T2 construct: would be utilised for the purified esterases from aphids; from tissue; host or cells: aphids (Myzus persicae), purified esterase
T2 sequence (P35502 24-564): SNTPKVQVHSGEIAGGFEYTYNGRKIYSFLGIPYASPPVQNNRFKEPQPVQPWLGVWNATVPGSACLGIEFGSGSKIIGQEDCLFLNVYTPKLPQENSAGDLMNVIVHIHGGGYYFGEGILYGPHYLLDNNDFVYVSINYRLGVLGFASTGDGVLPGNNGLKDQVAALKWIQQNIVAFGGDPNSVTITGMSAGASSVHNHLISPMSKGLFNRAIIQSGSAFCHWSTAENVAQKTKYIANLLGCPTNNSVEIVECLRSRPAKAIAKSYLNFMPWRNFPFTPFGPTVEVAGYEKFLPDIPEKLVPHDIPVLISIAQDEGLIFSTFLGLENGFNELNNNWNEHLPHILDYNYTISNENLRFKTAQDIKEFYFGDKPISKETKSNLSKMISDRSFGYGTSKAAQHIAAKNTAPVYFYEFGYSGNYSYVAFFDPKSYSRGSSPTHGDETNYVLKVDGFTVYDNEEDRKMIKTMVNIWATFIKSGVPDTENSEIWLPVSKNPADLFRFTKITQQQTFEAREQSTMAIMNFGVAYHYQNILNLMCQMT
Procedure: Inhibition of Esterasenzymes by Synergists in Myzus persicae
It was envisaged, therefore, that the ‘esterase intereference assay’ (Khot et al., 2008) would be utilised for the purified esterases from aphids. Various esterase substrates were assessed to find one suitable of monitoring inhibition in an insect homogenate. The Myzus persicae resistance associated esterase, FE4, was used.
Initially the esterase interference assay was carried out, as being the ‘absolute’ protocol for characterizing interactions between the compounds of Example 1-9 and FE4. However, since this is a protracted method, a selection of products already reported in the literature were used to compare the interference assay and the use of a model substrate.
From the literature (Philippou et al., 2013) it is known that 1-naphthyl acetate is not suitable for this assay. Instead, 4-nitrophenyl acetate was used. A 10 mM pNA stock was prepared in acetone and added to 0.02 M phosphate buffer pH 7.0 (final concentration 2 mM). The comparison was made with 6 PBO analogues of variable efficacy.
For the assay 10 μL of purified FE4 was diluted to a total volume of 50 μL by the addition of 0.02 M phosphate buffer, pH 7.0 in individual wells of a microplate (maxisorb, NUNC). To each well, 2.5 μL of 10 mM of the compound of Example 1 and of Example 2 in acetone was added and incubated for 10 mins, with acetone only used as a control. Following incubation, 100 μL of 0.02 phosphate buffer, pH 7.0 and 100 μL of 2 mM 4-nitrophenyl acetate was added (final volume in well 250 μL, final substrate concentration 0.8 mM). Enzyme activity was read at 405 nm in a Spectramax Tmax for 5 min, with readings taken every 5 secs. The rate (mOD min^−1) was calculated by the integrated software, Softmax Pro v.5.4.

Bemisia tabaci CYPCM1 = settings: recombinant enzyme 50 μL + 3 μL of 10 mM compound stock in acetone, 10 min incubation at room temperature, substrate 7-ethoxycoumarin, NADPH
Procedure: Ability of the compounds of the invention to inhibit oxidative enzymes (P450), a major mechanism conferring resistance to xenobiotics, was measured using recombinant enzymes corresponding to CYPCM1 from Bemisia tabaci.
Substrate used was 7-ethoxycoumarin for inhibition assays as described by Ulrich and Weber (1972) and adapted to microplate format as described by De Sousa et al. (1995).
Diluted recombinant enzyme (50 μL) was mixed with 3 μL of the above mentioned compound stock solutions, with acetone only used as a control. After 10 min incubation at room temperature, 80 μL of 0.125 mM 7- ethoxycoumarin was added, followed by 10 μL 9.6 mM NADPH (nicotinamide adenine dinucleotide phosphate) in 0.1 M sodium phosphate, pH 7.8, and O-deethylation activity monitored as above. A PBO solution (10 mM) was prepared in the same way as a comparison.

Row | Structure (SMILES) | binding affinity [1] | remaining activity at 10000 µM (stock) [2] [%] | % activity remaining (Bemisia tabaci CYPCM1) [%]
1 | CC#CCOc1ccc2c(c1)OCC2 [EN16-18, 6-(but-2-ynyloxy)-2,3-dihydrobenzofuran] | comparable with PBO |  | 
2 | C#CCOCc1cc(CCCCCC)cc2c1OCC2 [Example 1, 5-n-hexyl-7-((prop-2-ynyloxy)methyl)-2,3-dihydrobenzofuran] |  | 26.2 | 
3 | CC#CCOCc1cc(CCCCCC)cc2c1OCC2 [Example 2, 5-n-hexyl-7-((but-2-ynyloxy)methyl)-2,3-dihydrobenzofuran] |  | 35.4 | 27.49
4 | CC#CCOCc1cc(CCCC)cc2c1OCC2 [Example 3, 5-n-butyl-7-((but-2-ynyloxy)methyl)-2,3-dihydrobenzofuran] |  | 19.9 | 3.16
5 | CC#CCOc1cc(CCCCCC)cc2c1OCC2 [Example 4, 5-n-hexyl-7-(but-2-ynyloxy)-2,3-dihydrobenzofuran] |  | 24 | 39.22
6 | C#CCOCc1cc(CCCC)cc2c1OCC2 [Example 5, 5-n-butyl-7-((prop-2-ynyloxy)methyl)-2,3-dihydrobenzofuran] |  | 18.4 | 87.62
7 | C#CCOc1cc(CCCCCC)cc2c1OCC2 [Example 6, 5-n-hexyl-7-(prop-2-ynyloxy)-2,3-dihydrobenzofuran] |  | 29.8 | 61.16
8 | CC#CCOCc1cc(CCC)cc2c1OCC2 [Example 7, 5-n-propyl-7-((but-2-ynyloxy)methyl)-2,3-dihydrobenzofuran] |  | 19.9 | 17.92
9 | C#CCOCc1cc(CCC)cc2c1OCC2 [Example 8, 5-n-propyl-7-((prop-2-ynyloxy)methyl)-2,3-dihydrobenzofuran] |  | 23.9 | 86.22
